The text below walks through data of ChEMBL document CHEMBL3232965, “The σ2 receptor: a novel protein for the imaging and treatment of cancer” (J Med Chem, 2013).

As usually defined, the Ki is the equilibrium dissociation constant of an inhibitor or competing ligand from its target. A lower Ki goes with a stronger hold on the target. One may read the Kd as the constant that tells how readily two partners part at equilibrium. Broadly, the logP is a log measure of how a compound divides between an organic and an aqueous phase. Read a high logP as a more lipophilic compound.

The nature of data set [1]: Selectivity ratio of Ki for guinea pig brain sigma-1 opioid receptor to Ki for rat liver sigma-2 opioid receptor.
Data set [2] is described as follows: Displacement of [3H]-DTG from sigma-2 opioid receptor in rat liver. On the technique in general: Displacement assays read how much labelled ligand stays bound in the presence of the test substance.
The species entered for data set [3] is Homo sapiens. Description: Selectivity ratio of Ki for sigma-1 opioid receptor (unknown origin) to Ki for sigma-2 opioid receptor (unknown origin).
Data set [4] has as its target Sigma non-opioid intracellular receptor 1 (Homo sapiens, UniProt Q99720). Description: Binding affinity to sigma-1 opioid receptor (unknown origin).
Data set [5] can be described thus: Binding affinity to sigma-2 opioid receptor (unknown origin). On the set-up: species or system Homo sapiens.
The species named for data set [6] is Cavia porcellus. Description: Selectivity ratio of Ki for guinea pig brain membrane sigma-1 opioid receptor to Ki for guinea pig brain membrane sigma-2 opioid receptor.
Data set [7] is described as follows: Binding affinity to guinea pig brain membrane sigma-2 opioid receptor by radioligand displacement assay. The arrangement: species or system Cavia porcellus.
For data set [8], the target named is Sigma non-opioid intracellular receptor 1 (Cavia porcellus, UniProt Q60492). Put plainly: Binding affinity to guinea pig brain membrane sigma-1 opioid receptor by radioligand displacement assay.
Sequence of Sigma non-opioid intracellular receptor 1 (Cavia porcellus, UniProt Q60492) (Q60492 whole entry): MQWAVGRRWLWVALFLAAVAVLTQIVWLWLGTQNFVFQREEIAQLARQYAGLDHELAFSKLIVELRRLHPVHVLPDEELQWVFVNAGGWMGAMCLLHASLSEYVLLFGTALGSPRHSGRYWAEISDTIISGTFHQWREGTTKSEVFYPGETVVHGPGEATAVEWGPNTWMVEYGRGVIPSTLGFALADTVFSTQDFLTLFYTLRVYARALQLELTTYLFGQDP
The species entered for data set [9] is Homo sapiens. Description: Selectivity ratio of IC50 for sigma-1 opioid receptor (unknown origin) to IC50 for sigma-2 opioid receptor (unknown origin).
The nature of data set [10]: Binding affinity to sigma-1 opioid receptor (unknown origin).
Data set [11] can be described thus: Displacement of [3H]ditolylguanidine from sigma-2 opioid receptor in rat liver membranes by liquid scintillation spectrometric analysis. Type of data set: cell membranes, Membrane.
Another data set deals with TRAMP. Description: Selectivity ratio of Ki for sigma-1 opioid receptor in TRAMP cell membranes to Ki for sigma-2 opioid receptor in TRAMP cell membranes. The class given is cell-based. The following applies: Mus musculus.
Data set [12] in a line: Displacement of [3H]di-o-tolylguanidine from sigma-2 opioid receptor in rat brain. Type of data set: tissue-based.
The species entered for data set [13] is Cavia porcellus. Description: Selectivity ratio of Ki for guinea pig hippocampus sigma-1 opioid receptor to Ki for guinea pig hippocampus sigma-2 opioid receptor.
Data set [14] is described as follows: Binding affinity to guinea pig hippocampus sigma-2 opioid receptor. On the set-up: species or system Cavia porcellus.
Data set [15] is described as follows: Ratio of drug level in nuclear fraction to cytosolic fraction of human MCF7/ADR cells at 20 to 50 uM after 2 hrs by beta counting analysis. The class given is ADME, cell-based. To be noted: nci/adr-res.
Data set [16] is described as follows: Ratio of drug level in nuclear fraction to cytosolic fraction of human SK-N-SH cells at 20 to 50 uM after 2 hrs by beta counting analysis. Type of data set: ADME, cell-based.
Data set [17] is described as follows: Lipophilicity, log P of the compound. The class given is physicochemical. The following applies: octanol/water.
Data set [18] is described as follows: Displacement of [3H]progesterone from sigma-1 opioid receptor in porcine liver microsome membranes. Type of data set: microsomes, Sus scrofa.

Structures are written as SMILES. A value given as a limit tells only on which side of the number the result lay.

Sequence of Sigma non-opioid intracellular receptor 1 (Homo sapiens, UniProt Q99720) (Q99720 whole entry): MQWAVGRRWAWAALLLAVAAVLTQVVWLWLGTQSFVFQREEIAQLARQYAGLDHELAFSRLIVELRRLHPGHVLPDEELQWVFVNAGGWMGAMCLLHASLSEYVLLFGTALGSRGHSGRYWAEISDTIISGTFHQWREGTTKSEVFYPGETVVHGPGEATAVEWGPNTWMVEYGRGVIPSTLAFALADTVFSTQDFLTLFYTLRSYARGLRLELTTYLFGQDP

Take `COc1cccc2c1CCCC2CCCC1CCN(C2CCCCC2)CC1` (stereo not drawn): the Ratio Ki in data set [1] is 29. Affinity in data set [2] was put at a Ki of 26.6 nM.
With `Fc1ccccc1N1CCN(CCCn2ccc3ccccc32)CC1`, the Ratio Ki in the data set filed under Homo sapiens [3] amounted to 20. Also, the results for the Ki in [4] and in data set [5] were 1490 nM and 75 nM, respectively.
The like results for `CN1CC[C@@]2(c3cccc(O)c3)CC(=O)/C(=C/c3cccc(O)c3)[C@@H]1C2` were, in that order, 0.07, 10.5 nM and 153 nM.
Consider `CN1CC[C@]2(c3cccc(O)c3)CC(=O)/C(=C/c3ccc(Cl)c(Cl)c3)[C@H]1C2`, for which, in the data set listed under Homo sapiens [3], the Ratio Ki came to 555. The Ki in data set [4] turned out to be 7440 nM; in [5], 13.4 nM.
`COc1cc2c(cc1OC)CN(CCNC(=O)c1cc(C)ccc1OC)CC2` registered a Ki in [5] of 13.3 nM.
With `COc1cccc2c1CCC[C@H]2NC(=O)CN1CCN(C2CCCCC2)CC1`, in [1], the Ratio Ki turned out to be 2. Further, the affinity in data set [2], expressed as Ki, was 10.1 nM.
For `COc1ccc(CN2C3CCC2CC3)cc1OC`, the Ki in [5] came to 43 nM.
Turning to `OC12C3C4CC5C6C4C1C6C(C53)N2Cc1ccc(F)cc1` (stereo not drawn), the Ratio Ki in the data set filed under Cavia porcellus [6] is 7.6. Also, the Ki in data set [7] is 20 nM; in data set [8] it was 152 nM.
Regarding `CCC(Oc1ccc(Cl)cc1)C(=O)OC1CC2CCC(C1)N2C` (racemic), the Ratio Ki in the data set filed under Homo sapiens [3] is > 15. For the same molecule, the Ki was > 1000 nM in data set [4] and 67.5 nM in [5].
Turning to `O=S(=O)(c1ccccc1)n1cc(CCCCN2CCC3(CC2)OCc2ccccc23)c2ccccc21`, the Ratio IC50 in the data set filed under Homo sapiens [9] amounted to 59. Besides, the Ki in data set [4] came out at 10 nM; in data set [5] it was 0.17 nM.
Regarding `Fc1ccc(C2=CC3CCC(C2)N3CCCCc2cn(-c3ccc(F)cc3)c3ccccc23)cc1` (stereo not drawn), in the data set listed under Homo sapiens [9], the Ratio IC50 is 480. Further, the Ki is 1200 nM in data set [4] and 2.5 nM in [5].
As to `COC(=O)[C@@]1(c2ccccc2)C[C@H]1CN1C2CCC1CC(O)(c1ccc(Cl)cc1)C2` (stereo partly drawn), the Ratio Ki in the data set filed under Cavia porcellus [6] stood at 20.6.
On to `COc1cc2c(cc1OC)CN(CCNC(=O)c1cc(Br)cc(OC)c1OC)CC2`, for which the Ratio Ki in the data set filed under Homo sapiens [3] amounted to 179. Moreover, the Ki is 16.4 nM in data set [5] and 2930 nM in data set [10].
Consider `COc1ccc(C(=O)NCCCCN2CCc3ccc([N+](=O)[O-])cc3C2)c(OC)c1OC`, for which, in the data set filed under Homo sapiens [3], the Ratio Ki was determined as 385. Besides, the figures for the Ki in data set [4] and in data set [5] were 10300 nM and 26.8 nM, respectively.
Regarding `COc1ccc(C)cc1NC(=O)OC1CC2CCCC(C1)N2Cc1ccc(N(C)C)cc1` (stereo not drawn), the Ratio Ki in the data set filed under Homo sapiens [3] was 553. In addition, the Ki in data set [4] was 1440 nM; in [5] it was 2.6 nM.
`CC(=O)[C@H]1CC[C@H]2[C@@H]3CCC4=CC(=O)CC[C@]4(C)[C@H]3CC[C@]12C` [PROGESTERONE] yielded a Kd in [11] of 441 nM.
Consider `CN1CC[C@@]2(c3cccc(O)c3)CC(=O)/C(=C/c3ccc(Cl)c(Cl)c3)[C@@H]1C2`, for which, in the data set filed under Homo sapiens [3], the Ratio Ki came out at 0.77. The inhibition constant Ki worked out at 27.3 nM in [4] and 35.3 nM in data set [5].
For `CC[C@H]1C[C@H]2C[C@H]3c4[nH]c5ccc(OC)cc5c4CCN(C2)[C@@H]13` [IBOGAINE], the Ratio Ki in the data set listed under Homo sapiens [3] stood at 43. Further, affinity in [5] was put at a Ki of 201 nM.
Turning to `COc1cc2c(cc1OC)CN(CCCCNC(=O)c1cc(Br)cc(OC)c1OC)CC2`, in data set [5], the Ki turned out to be 8.2 nM.
For `CN1CC[C@]2(c3cccc(O)c3)CC(=O)/C(=C/c3cccc(O)c3)[C@H]1C2`, in the data set listed under Homo sapiens [3], the Ratio Ki was found to be 185. Besides, the inhibition constant (Ki) in data set [4] was 3060 nM; in data set [5], 16.5 nM.
For `COc1cccc2c1CCCC2CCCN1CCC(C2CCCCC2)CC1` (stereo not drawn), in data set [1], the Ratio Ki was determined as 7.6. In [2], this molecule registered an inhibition constant (Ki) of 18.8 nM.
For `CC[C@H]1C[C@@H]2C[C@H]3c4[nH]c5ccc(OC)cc5c4CCN(C2)[C@@H]13` [IBOGAINE], in [4], affinity was put at a Ki of 8550 nM.
In the case of `COc1cccc2c(CCCN3CCN(C4CCCCC4)CC3)cccc12`, the Ratio Ki in the data set on TRAMP was 13.
With `COc1cc2c(cc1OC)CN(CCNC(=O)c1cc(Br)ccc1OC)CC2`, the Ki amounted to 12.4 nM in [5] and 5480 nM in [10].
Turning to `CC(=O)c1ccc2c(c1)oc(=O)n2CCCCN1CCN(c2ccc(F)cc2)CC1`, the Ki in data set [12] was found to be 7 nM.
As to `CCn1c(=O)n(C(=O)NC2CC3CCC(C2)N3C)c2ccccc21` (stereo not drawn), the Ratio Ki in the data set filed under Cavia porcellus [13] was 197. In data set [14], this molecule gave an inhibitory constant (Ki) of 32 nM.
Take `COc1cccc2c1CCCC2CCCN1CCN(C2CCCCC2)CC1` (racemic): the Ratio in data set [15] and in data set [16] was 5 throughout. In [1], the Ratio Ki worked out at 0.56.
With `CS(=O)(=O)n1cc(CCCCN2CCC3(CC2)OCc2ccccc23)c2ccccc21`, the Ratio IC50 in the data set listed under Homo sapiens [9] was determined as 26. Further, the Ki in data set [4] is 1.3 nM; in data set [5], 0.05 nM.
As to `COc1cc(Br)cc(C(=O)NCCCCN2CCN(c3cccc(Cl)c3Cl)CC2)c1OC`, the logP in data set [17] turned out to be 5.76. Moreover, the Ki turned out to be 75 nM in data set [5] and 809 nM in data set [10].
With `COc1cccc2c1CCC[C@@H]2NC(=O)CN1CCN(C2CCCCC2)CC1`, the Ratio Ki in [1] amounted to 16. In [2], this molecule returned a Ki of 6 nM.
Take `CC(C)=CCN1CC[C@]2(C)c3cc(O)ccc3C[C@H]1[C@H]2C` [(+)-PENTAZOCINE]: the Ki in data set [18] amounted to 1130 nM.
